Assay results taken from patent US20240382455A1, “COMPOSITION CONTAINING 1H-PYRAZOLE-3-AMIDE-BASED COMPOUND DERIVATIVE FOR PREVENTION OR TREATMENT OF FIBROSIS” (TSD LIFE SCIENCES CO., LTD., priority 2017, published 2024).

Legend:
Type in all cases: in vivo, C57BL/6 mice
[1] = system: αSMA, TGF-β1, COL6A3, and LOX mRNAs; experiment: Quantitative real-time PCR on epididymal adipose tissue of fibrosis model mice; conditions: adipose tissue (FIG. 3); 10 mg/kg intraperitoneal for 4 weeks; almost similar to rimonabant 10 mg/kg positive control
Procedure: (§1) First, after stabilizing 5-week old male C57BL/6 mice for one week, a fibrosis model was constructed by feeding the mice with a high fat diet and a high-carbohydrate diet for 12 weeks, thereby inducing fibrosis of the mice. After that, the mice were divided into total four groups, and a vehicle (negative control group), 10mg/kg of rimonabant (positive control group), 10 mg/kg of a compound 1, and 10mg/kg of a compound 2 were administered to each of the groups by intraperitoneal injection for 4 weeks. In order to perform an experimental process, the mice were sacrificed, and epididymal adipose and liver tissues were extracted from the sacrificed mice.
(§2) After separating RNA from the extracted epididymal adipose and liver tissues by using a Trizol reagent (Gibco), cDNA templates were produced by using reverse transcriptase. After injecting such produced cDNA templates into SYBR green dyes by using gene-specific nucleotide primers, PCR products were analyzed to obtain analyzed mRNAs by amplifying the cDNA templates injected into SYBR green dyes with a real-time multiplexing amplification system (CFX connect™, Bio-Rad). At this time, the analyzed mRNAs were αSMA, TGF-β1, COL6A3, and LOX mRNAs, and used primer sequences are as described in the following [Table 1].

[2] = system: collagen permeated into liver tissue of fibrosis model mice; experiment: Picrosirius staining of liver tissue of fibrosis model mice; conditions: liver tissue (FIG. 4); high fat and high-carbohydrate diet mice; 10 mg/kg intraperitoneal for 4 weeks; compared to vehicle treatment group
Procedure: as §1
(§3) After fixing and embedding the extracted epididymal adipose and liver tissues, paraffin sections were manufactured by slicing the embedded epididymal adipose and liver tissues. After that, fibrosis degrees were analyzed by staining collagen permeated into each of the tissues by using a picrosirius red stain kit.

[3] = system: collagen permeated into epididymal adipose tissue of fibrosis model mice; experiment: Picrosirius staining of epididymal adipose tissue of fibrosis model mice; conditions: adipose tissue (FIG. 2); high fat and high-carbohydrate diet mice; 10 mg/kg intraperitoneal for 4 weeks; compared to vehicle treatment group
Procedure: as §1, §3

[4] = system: αSMA, TGF-β1, COL6A3, and LOX mRNAs; experiment: Quantitative real-time PCR on liver tissue of fibrosis model mice; conditions: liver tissue (FIG. 5); 10 mg/kg intraperitoneal for 4 weeks; almost similar to rimonabant 10 mg/kg positive control
Procedure: as §1, §2

SMILES | expression of four gene mRNAs (αSMA, TGF-β1, COL6A3, LOX) [1] | accumulation degrees stained with red color (picrosirius, collagen) [2] | accumulation degrees stained with red color (picrosirius, collagen) [3] | expression of four gene mRNAs (αSMA, TGF-β1, COL6A3, LOX) [4]
Cc1c(/C=C/C(=O)NCc2cccc(Cl)c2)nn(-c2ccc(Cl)cc2Cl)c1-c1ccc(Cl)cc1 [compound 1, (E)-N-(3-chlorobenzyl)-3-(5-(4-chlorophenyl)-1-(2,4-dichlorophenyl)-4-methyl-1H-pyrazole-3-yl)acrylamide] | inhibited | reduced | reduced | inhibited
Cc1c(C(=O)C(=O)NCCO)nn(-c2ccc(Cl)cc2Cl)c1-c1ccc(Cl)cc1 [compound 2, 2-(5-(4-chlorophenyl)-1-(2,4-dichlorophenyl)-4-methyl-1H-pyrazole-3-yl)-N-(2-hydroxyethyl)-2-oxo-acetamide] | inhibited | reduced | reduced | inhibited
